Counter-ions that a name gives are not always drawn.

One assay relates to Alzheimer patients. The experiment in a line: Effect on an Alzheimer patient: cognitive state and mini-mental state examination (MMSE). Format: in vivo, human. As to conditions: daily, discontinued after two weeks; person, MMSE 13. On the procedure:
Six weeks after the diagnosis, the patient's condition continued to deteriorate. The patient was administered memantine hydrochloride (Ebixa® tablet), an antidementia medicine, on a daily basis. Blood-pressure reducing medication was concomitantly administered and the blood pressure was measured to be on the average of 130/70 systolic/diastolic. However, the patient's deterioration appeared to be unaffected by the drug and administration of Ebixa was consequently discontinued after two weeks.
The following four months were characterized by sporadic memory lapses typical of a moderately severe affliction as well as behavioral deteriorations that occurred from time to time
Consequently, the blood-pressure reducing medication was discontinued and the administration of GSE was reduced to one capsule per day (300 mg) as GSE is known to reduce blood pressure.

Another assay relates to amyloid fibrils. As to conditions: in-vitro; cited from earlier work.
For the next assay, the system named is β-amyloid peptides. As to conditions: cited from earlier work.
A short description of assay [1]: General effect on mental faculties (memory) of a first subject. It counts as in vivo, human. As to conditions: 100 mg once daily over 40 days, after nocturnal sleep, same subject after ceasing GSE. On the procedure: A first subject consumed a capsule containing 300 mg of Meganatural-BP® over a period of 18 months, once daily, immediately after nocturnal sleep. […] The same subject ceased to consume GSE and immediately subsequent consumed capsules of 100 mg EGCG (Lyan) over a period of 40 days, once daily, immediately after nocturnal sleep. 300 mg of Meganatural-BP® and 60 mg of EGCG capsules were concomitantly administered to the same subject, immediately after nocturnal sleep, following the EGCG regime.

With `CC12CC3CC(C)(C1)CC(N)(C3)C2` [memantine hydrochloride], the “patient's deterioration” value in the assay on Alzheimer patients is listed as “unaffected”.

Epigallocatechin-3-gallate [EGCG]: the “formation of β-sheet rich aggregation products such as amyloid fibrils” value in the assay on amyloid fibrils is given as “prevented”. The “generation of β-amyloid peptides” value in the assay on β-amyloid peptides is reported as “reduces”. For the same compound, the improvement of memory entry in assay [1] is listed as “No improvement of memory”.
